Results reported in PMC3977054, “Design, Synthesis and Biological Evaluation of 5-Oxo-1,4,5,6,7,8 Hexahydroquinoline Derivatives as Selective Cyclooxygenase-2 Inhibitors” (Iranian Journal of Pharmaceutical Research : IJPR, 2014).

Columns and labels:
COX-2 = molecular target: T1, COX-2 (Ovis aries, UniProt P79208); assay: biochemical; settings: for COX-2 S.I. (COX-1 IC50/ COX-2 IC50): in-vitro COX-2 selectivity index; for IC50: ovine COX-1/COX-2 assay kit, mean of two determinations, deviation < 10% of the mean
T1 construct: purchased Cayman chemical, MI, USA
T1 sequence (P79208 17-603): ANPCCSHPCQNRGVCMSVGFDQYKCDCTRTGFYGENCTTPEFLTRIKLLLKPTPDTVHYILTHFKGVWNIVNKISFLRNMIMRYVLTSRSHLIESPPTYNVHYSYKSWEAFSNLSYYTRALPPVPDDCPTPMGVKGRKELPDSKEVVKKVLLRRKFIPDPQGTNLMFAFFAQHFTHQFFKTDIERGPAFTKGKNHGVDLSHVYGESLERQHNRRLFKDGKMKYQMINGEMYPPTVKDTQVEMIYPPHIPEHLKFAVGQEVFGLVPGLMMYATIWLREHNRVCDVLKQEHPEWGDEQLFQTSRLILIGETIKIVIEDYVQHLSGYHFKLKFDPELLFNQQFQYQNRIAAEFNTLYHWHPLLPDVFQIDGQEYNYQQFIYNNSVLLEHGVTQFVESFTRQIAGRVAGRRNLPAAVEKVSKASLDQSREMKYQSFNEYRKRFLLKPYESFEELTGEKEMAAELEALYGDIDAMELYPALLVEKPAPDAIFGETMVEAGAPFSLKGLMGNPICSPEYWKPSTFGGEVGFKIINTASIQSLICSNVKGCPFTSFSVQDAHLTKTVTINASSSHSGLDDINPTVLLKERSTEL
Procedure: (§1) In-vitro cyclooxygenase (COX) inhibition assays
(§2) The assay was performed using an enzyme chemiluminescent kit (Cayman chemical, MI, USA) according to our previously reported method ([10]).

COX-1 = molecular target: T2, COX-1 (Ovis aries, UniProt P05979); assay: biochemical; settings: ovine COX-1/COX-2 assay kit; mean of two determinations, deviation < 10% of the mean
T2 construct: purchased Cayman chemical, MI, USA
T2 sequence (P05979 25-600): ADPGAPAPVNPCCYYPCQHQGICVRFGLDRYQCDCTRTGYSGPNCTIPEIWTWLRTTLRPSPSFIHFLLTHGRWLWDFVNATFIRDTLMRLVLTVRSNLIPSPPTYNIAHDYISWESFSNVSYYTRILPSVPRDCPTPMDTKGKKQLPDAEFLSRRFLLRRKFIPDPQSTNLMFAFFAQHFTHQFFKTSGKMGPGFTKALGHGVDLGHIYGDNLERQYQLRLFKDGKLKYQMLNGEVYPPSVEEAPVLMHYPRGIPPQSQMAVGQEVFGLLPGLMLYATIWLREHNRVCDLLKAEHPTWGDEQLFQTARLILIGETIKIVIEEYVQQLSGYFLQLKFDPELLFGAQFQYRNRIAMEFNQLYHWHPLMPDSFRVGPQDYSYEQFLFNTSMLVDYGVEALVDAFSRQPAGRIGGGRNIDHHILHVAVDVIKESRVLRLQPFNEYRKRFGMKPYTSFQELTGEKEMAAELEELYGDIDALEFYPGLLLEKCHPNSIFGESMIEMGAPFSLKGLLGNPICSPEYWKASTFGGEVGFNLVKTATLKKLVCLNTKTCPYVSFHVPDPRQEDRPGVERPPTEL
Procedure: as §1, §2

SMILES	COX-2 S.I. (COX-1 IC50/ COX-2 IC50) (COX-2)	IC50 (COX-2) [µM]	IC50 (COX-1) [µM]	melting point [°C]
CC1(C)CC(=O)C2=C(C1)NC(c1ccc(S(C)(=O)=O)cc1)=CC2c1ccccc1 (stereo not shown) [Compound 9a]	3.3	0.8	2.6	
Cc1ccc(C2C=C(c3ccc(S(C)(=O)=O)cc3)NC3=C2C(=O)CC(C)(C)C3)cc1 (stereo not shown) [Compound 9b]	5.6	0.45	2.5	
COc1ccc(C2C=C(c3ccc(S(C)(=O)=O)cc3)NC3=C2C(=O)CC(C)(C)C3)cc1 (stereo not shown) [Compound 9c, 7,8-Dihydro-7,7-dimethyl-4-(4-methoxyphenyl)-2-(4-(methylsulfonyl)phenyl) quinolin-5(1H, 4H, 6H)-one]		0.17	16.6	250 to 253
CC1(C)CC(=O)C2=C(C1)NC(c1ccc(S(C)(=O)=O)cc1)=CC2c1ccc(F)cc1 (stereo not shown) [Compound 9d]	43	0.3	12.9	130 to 133
CC1(C)CC(=O)C2=C(C1)NC(c1ccc(S(C)(=O)=O)cc1)=CC2c1ccc(Cl)cc1 (stereo not shown) [Compound 9e]	3.8	4.9	18.7	232 to 236
CC1(C)CC(=O)C2=C(C1)NC(c1ccc(S(C)(=O)=O)cc1)=CC2c1ccc(Br)cc1 (stereo not shown) [Compound 9f]	2.1	10.1	20.9	237 to 240
CC1(C)CC(=O)C2=C(C1)NC(c1ccc(S(C)(=O)=O)cc1)=CC2c1ccc([N+](=O)[O-])cc1 (stereo not shown) [Compound 9g]	1.1	16.6	17.6	
CC1(C)CC(=O)C2=C(C1)NC(c1ccccc1)=CC2c1ccc(S(C)(=O)=O)cc1 (stereo not shown) [Compound 9h]	3.1	1.16	3.6	205 to 208
Cc1ccc(C2=CC(c3ccc(S(C)(=O)=O)cc3)C3=C(CC(C)(C)CC3=O)N2)cc1 (stereo not shown) [Compound 9i, 7,8-Dihydro-7,7-dimethyl-2-(4-methylphenyl)-4-(4-(methylsulfonyl)phenyl) quinolin-5(1H, 4H, 6H)-one]	2.2	1.3	2.9	223 to 225
COc1ccc(C2=CC(c3ccc(S(C)(=O)=O)cc3)C3=C(CC(C)(C)CC3=O)N2)cc1 (stereo not shown) [Compound 9j, 7,8-Dihydro-2-(4-methoxyphenyl)-7,7-dimethyl-4-(4-(methylsulfonyl)phenyl) quinolin-5(1H, 4H, 6H)-one]	62.3	0.3	18.7	226 to 230
CC1(C)CC(=O)C2=C(C1)NC(c1ccc(F)cc1)=CC2c1ccc(S(C)(=O)=O)cc1 (stereo not shown) [Compound 9k, 2-(4-Fluorophenyl)-7,8-dihydro-7,7-dimethyl-4-(4-(methylsulfonyl)phenyl) quinolin-5 (1H, 4H, 6H)-one]	14.2	1	14.2	226 to 230
CC1(C)CC(=O)C2=C(C1)NC(c1ccc(Cl)cc1)=CC2c1ccc(S(C)(=O)=O)cc1 (stereo not shown) [Compound 9l, 2-(4-Cholorophenyl)-7,8-dihydro-7,7-dimethyl-4-(4-(methylsulfonyl)phenyl) quinolin-5(1H, 4H, 6H)-one]	3.1	6.9	21.6	226 to 230
CC1(C)CC(=O)C2=C(C1)NC(c1ccc(Br)cc1)=CC2c1ccc(S(C)(=O)=O)cc1 (stereo not shown) [Compound 9m, 2-(4-Bromophenyl)-7,8-dihydro-7,7-dimethyl-4-(4-(methylsulfonyl)phenyl) quinolin-5 (1H, 4H, 6H)-one]	1.3	13.2	17.9	226 to 230
CC1(C)CC(=O)C2=C(C1)NC(c1ccc([N+](=O)[O-])cc1)=CC2c1ccc(S(C)(=O)=O)cc1 (stereo not shown) [Compound 9n, 7,8-Dihydro-7,7-dimethyl-4-(4-(methylsulfonyl)phenyl)-2-(4-nitrophenyl) quinolin-5 (1H, 4H, 6H)-one]	0.7	24.9	18.6	226 to 230
